Test results as given in patent US20020026053A1, “Novel 3-(substituted) -2- indolinones compounds and use thereof as inhibitors of protein kinase activity” (priority 1997, published 2002).

Biological target: T1, Met receptor (EGFR/Met chimeric cells, EMR) (Homo sapiens, UniProt P08581)
T1 construct: expressed in transfected cells; the other entry of the earlier key: EGFR (P00533, Epidermal growth factor receptor)
Assay: Met Autophosphorylation Assay
Type: biochemical
How it was run: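 Transiently transfected EGFR/Met chimeric (EMR) cells were lysed in HNTG with 1 mM PMSF. Met was captured on plates coated with goat anti-rabbit IgG, then rabbit anti-Met (C-28), using 90 μg lysate/100 μl for 60 min at room temperature. Phosphotyrosine was read by ELISA.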

T1 sequence (P08581 with tags, fused parts or gaps): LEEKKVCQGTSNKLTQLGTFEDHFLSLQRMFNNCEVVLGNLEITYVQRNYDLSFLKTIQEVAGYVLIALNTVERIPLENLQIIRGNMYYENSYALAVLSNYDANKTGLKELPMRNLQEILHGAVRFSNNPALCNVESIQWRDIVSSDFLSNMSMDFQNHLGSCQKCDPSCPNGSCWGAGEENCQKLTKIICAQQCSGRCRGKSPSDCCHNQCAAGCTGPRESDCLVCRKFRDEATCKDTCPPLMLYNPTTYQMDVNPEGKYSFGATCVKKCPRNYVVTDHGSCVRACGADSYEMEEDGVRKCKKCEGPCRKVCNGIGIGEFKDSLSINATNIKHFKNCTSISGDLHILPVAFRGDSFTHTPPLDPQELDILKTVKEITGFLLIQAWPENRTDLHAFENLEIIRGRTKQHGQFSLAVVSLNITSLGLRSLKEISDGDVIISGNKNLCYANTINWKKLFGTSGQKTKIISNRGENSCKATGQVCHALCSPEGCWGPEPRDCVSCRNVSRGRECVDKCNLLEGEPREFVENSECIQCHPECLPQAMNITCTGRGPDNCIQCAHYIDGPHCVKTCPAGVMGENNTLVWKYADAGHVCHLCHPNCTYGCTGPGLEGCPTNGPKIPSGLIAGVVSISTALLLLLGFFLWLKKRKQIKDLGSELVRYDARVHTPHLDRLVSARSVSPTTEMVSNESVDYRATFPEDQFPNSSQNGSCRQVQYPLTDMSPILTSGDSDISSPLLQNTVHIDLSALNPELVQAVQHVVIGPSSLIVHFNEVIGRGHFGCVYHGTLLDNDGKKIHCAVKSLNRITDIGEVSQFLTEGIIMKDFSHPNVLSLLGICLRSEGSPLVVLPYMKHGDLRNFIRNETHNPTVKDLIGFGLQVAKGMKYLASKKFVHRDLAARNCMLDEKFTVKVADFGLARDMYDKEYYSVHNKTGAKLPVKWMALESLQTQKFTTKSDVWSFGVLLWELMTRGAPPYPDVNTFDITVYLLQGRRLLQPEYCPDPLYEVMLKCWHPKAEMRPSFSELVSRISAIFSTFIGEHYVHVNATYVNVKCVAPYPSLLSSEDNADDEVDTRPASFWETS

Row | SMILES | Met Kinase % Inhibition (P.130)
1 | O=C1Nc2ccc(CCCl)cc2C1=Cc1cccc(C(F)(F)F)c1 [10735/G05] | 22.2%
2 | O=C1Nc2ccc(CCCl)cc2C1=Cc1cc(C(F)(F)F)cc(C(F)(F)F)c1 [10735/G06] | 36.1%
